Patent US7579469B2, “Glucocorticoid mimetics, methods of making them, pharmaceutical compositions, and uses thereof” (Boehringer Ingelheim Pharmaceuticals, Inc., priority 2003, dated 2009)

Molecular target: T1, human glucocorticoid receptor (GR) complex (Homo sapiens, UniProt P04150)
T1 construct: made in house; host or cells: insect expression system (baculovirus lysate)
T1 sequence (P04150 1-777): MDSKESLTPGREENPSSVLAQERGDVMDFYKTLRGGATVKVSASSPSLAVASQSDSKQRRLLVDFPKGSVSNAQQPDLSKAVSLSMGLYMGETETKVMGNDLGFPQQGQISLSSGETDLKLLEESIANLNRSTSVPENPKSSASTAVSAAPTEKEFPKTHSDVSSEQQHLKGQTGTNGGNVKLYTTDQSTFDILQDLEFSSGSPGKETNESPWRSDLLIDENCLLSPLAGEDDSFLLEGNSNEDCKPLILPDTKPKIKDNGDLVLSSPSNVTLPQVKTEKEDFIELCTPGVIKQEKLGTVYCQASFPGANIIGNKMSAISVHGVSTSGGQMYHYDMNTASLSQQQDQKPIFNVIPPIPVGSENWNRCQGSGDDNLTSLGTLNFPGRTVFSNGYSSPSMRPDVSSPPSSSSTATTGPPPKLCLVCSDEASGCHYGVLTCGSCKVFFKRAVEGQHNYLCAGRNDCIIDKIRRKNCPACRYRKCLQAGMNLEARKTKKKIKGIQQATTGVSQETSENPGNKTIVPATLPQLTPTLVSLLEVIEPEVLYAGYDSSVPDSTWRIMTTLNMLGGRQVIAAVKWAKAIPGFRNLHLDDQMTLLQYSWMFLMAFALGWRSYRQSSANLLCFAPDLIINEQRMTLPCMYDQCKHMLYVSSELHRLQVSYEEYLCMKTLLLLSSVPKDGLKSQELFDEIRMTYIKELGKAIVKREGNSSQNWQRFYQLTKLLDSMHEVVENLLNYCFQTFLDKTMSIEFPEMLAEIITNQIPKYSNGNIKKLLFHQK
Assay: Glucocorticoid receptor competitive binding assay (fluorescence polarization)
Settings: competition with TAMRA-labeled dexamethasone
Method: Compounds of the invention were evaluated for binding to the steroid receptor by a fluorescence polarization competitive binding assay.
A. Glucocorticoid Receptor Competitive Binding Assay
Step 1. Characterization of the Fluorescent Probe
The wavelengths for maximum excitation and emission of the fluorescent probe should first be measured. An example of such a probe is rhodamine (TAMRA)-labeled dexamethasone.
The affinity of the probe for the steroid receptor was then determined in a titration experiment. The fluorescence polarization value of the probe in assay buffer was measured on an SLM-8100 fluorometer using the excitation and emission maximum values described above. Aliquots of expression vector lysate were added and fluorescence polarization was measured after each addition until no further change in polarization value was observed. Non-linear least squares regression analysis was used to calculate the dissociation constant of the probe from the polarization values obtained for lysate binding to the probe.
Step 2. Screening for Inhibitors of Probe Binding
This assay uses fluorescence polarization (FP) to quantitate the ability of test compounds to compete with tetramethyl rhodamine (TAMRA)-labeled dexamethasone for binding to a human glucocorticoid receptor (GR) complex prepared from an insect expression system. The assay buffer was: 10 mM TES, 50 mM KCl, 20 mM Na2MoO4.2H20, 1.5 mM EDTA, 0.04% w/v CHAPS, 10% v/v glycerol, 1 mM dithiothreitol, pH 7.4. Test compounds were dissolved to 1 mM in neat DMSO and then further diluted to 10× assay concentration in assay buffer supplemented with 10% v/v DMSO. Test compounds were serially diluted at 10× assay concentrations in 10% DMSO-containing buffer in 96-well polypropylene plates. Binding reaction mixtures were prepared in 96-well black Dynex microtiter plates by sequential addition of the following assay components to each well: 15 μL of 10× test compound solution, 85 μL of GR-containing baculovirus lysate diluted 1:170 in assay buffer, and 50 μL of 15 nM TAMRA-labeled dexamethasone. Positive controls were reaction mixtures containing no test compound; negative controls (blanks) were reaction mixtures containing 0.7 μM to 2 μM dexamethasone. […] IC50 values were determined by iterative non-linear curve fitting of the FP signal data to a 4-parameter logistic equation.

Compound	activity in the GR binding assay
COc1ccc(F)cc1C(C)(C)CC(O)(Cn1ccc(=O)c2ccccc21)C(F)F (stereo not drawn)	potent activity
CC(C)(CC(O)(Cn1ccc(=O)c2ccccc21)C(F)(F)F)c1cc(-c2cncnc2)ccc1O (stereo not drawn)	potent activity
COc1c(C)cc(C)cc1C(C)(C)CC(O)(Cn1ccc(=O)c2ccccc21)C(F)(F)F (stereo not drawn)	potent activity
COc1ccc(-c2cncnc2)cc1C(C)(C)CC(O)(Cn1ccc(=O)c2ccccc21)C(F)(F)F (stereo not drawn)	potent activity
COc1ccc(-c2ccsc2)cc1C(C)(C)CC(O)(Cn1ccc(=O)c2ccccc21)C(F)(F)F (stereo not drawn)	potent activity
CC(C)(CC(O)(Cn1ccc(=O)c2ccccc21)C(F)(F)F)c1cccc(CO)c1 (stereo not drawn)	potent activity
CC(C)Oc1cccc(C(C)(C)CC(O)(Cn2ccc(=O)c3ccccc32)C(F)(F)F)c1 (stereo not drawn)	potent activity
CC(C)(CC(O)(Cn1ccc(=O)c2ccccc21)C(F)(F)F)c1cccc(-c2cccnc2)c1 (stereo not drawn)	potent activity
CC(C)(CC(O)(Cn1ccc(=O)c2ccccc21)C(F)(F)F)c1cccc2c1OCO2 (stereo not drawn)	potent activity
CC(C)(CC(O)(Cn1ccc(=O)c2ccccc21)C(F)(F)F)c1cccc(C(=O)C2CC2)c1 (stereo not drawn)	potent activity
Cc1ccc(C(C)(C)CC(O)(Cn2ccc(=O)c3ccccc32)C(F)(F)F)cc1C (stereo not drawn)	potent activity
CC(C)(CC(O)(Cn1ccc(=O)c2ccccc21)C(F)(F)F)c1cc(F)cc(F)c1 (stereo not drawn)	potent activity
Cc1cc(C)cc(C(C)(C)CC(O)(Cn2ccc(=O)c3ccccc32)C(F)(F)F)c1 (stereo not drawn)	potent activity
Cc1cc(F)ccc1C(C)(C)CC(O)(Cn1ccc(=O)c2ccccc21)C(F)(F)F (stereo not drawn)	potent activity
CC(=O)c1ccc(O)c(C(C)(C)CC(O)(Cn2ccc(=O)c3ccccc32)C(F)(F)F)c1 (stereo not drawn)	potent activity
CC(C)(CC(O)(Cn1ccc(=O)c2ccc(O)cc21)C(F)(F)F)c1cc(F)ccc1O (stereo not drawn)	potent activity
Cc1cn(CC(O)(CC(C)(C)c2cc(F)ccc2O)C(F)(F)F)c2ccccc2c1=O (stereo not drawn)	potent activity
CC(C)Oc1ccc(F)cc1C(C)(C)CC(O)(Cn1ccc(=O)c2ccccc21)C(F)(F)F (stereo not drawn)	potent activity
COc1ccc(F)cc1C(C)(C)CC(O)(Cn1ccc(=O)c2cc(C)ccc21)C(F)(F)F (stereo not drawn)	potent activity
Cc1ccc(F)cc1C(C)(C)CC(O)(Cn1ccc(=O)c2ccccc21)C(F)(F)F (stereo not drawn)	potent activity
COC(=O)Oc1ccc(F)cc1C(C)(C)CC(O)(Cn1ccc(=O)c2ccccc21)C(F)(F)F (stereo not drawn)	potent activity
COc1ccc(F)cc1C(C)(C)CC(O)(CN1CC[S+]([O-])c2ccccc21)C(F)(F)F (stereo not drawn) [1,1,1-Trifluoro-4-(5-fluoro-2-methoxyphenyl)-4-methyl-2-(1-oxo-2,3-dihydro-1H-1λ^4-benzo[1,4]thiazin-4-ylmethyl)pentan-2-ol]	potent activity
COc1ccc(F)cc1C(C)(C)CC(O)(CN1CCN(C)c2ccccc21)C(F)(F)F (stereo not drawn) [1,1,1-Trifluoro-4-(5-fluoro-2-methoxyphenyl)-4-methyl-2-(4-methyl-3,4-dihydro-2H-quinoxalin-1-ylmethyl)pentan-2-ol]	potent activity
CC(=NO)c1cccc(C(C)(C)CC(O)(Cn2ccc(=O)c3ccccc32)C(F)(F)F)c1 (stereo not drawn) [1-(2-Hydroxy-4-{3-[1-(hydroxyimino)ethyl]phenyl}4-methyl-2-trifluoromethylpentyl)-1H-quinolin-4-one]	potent activity
CON=C(C)c1cccc(C(C)(C)CC(O)(Cn2ccc(=O)c3ccccc32)C(F)(F)F)c1 (stereo not drawn) [1-(2-Hydroxy-4-{3-[1-(methoxyimino)ethyl]phenyl}4-methyl-2-trifluoromethylpentyl)-1H-quinolin-4-one]	potent activity
CC(C)(CC(O)(Cn1ccc(=O)c2ccccc21)C(F)(F)F)c1cccc(-c2ccccc2)c1 (stereo not drawn) [1-(4-Biphenyl-3-yl-2-hydroxy-4-methyl-2-trifluoromethylpentyl)-H-quinolin-4-one]	potent activity
Cc1ccc(O)c(C(C)(C)CC(O)(Cn2ccc(=O)c3ccccc32)C(F)(F)F)c1 (stereo not drawn) [1-[2-Hydroxy-4-(2-hydroxy-5-methylphenyl)-4-methyl-2-trifluoromethylpentyl]-1H-quinolin-4-one]	potent activity
CC(C)(CC(O)(Cn1ccc(=O)c2ccccc21)C(F)(F)F)c1cc(CN2CCOCC2)ccc1O (stereo not drawn) [1-[2-Hydroxy-4-(2-hydroxy-5-morpholin-4-ylmethylphenyl)-4-methyl-2-trifluoromethylpentyl]-1H-quinolin-4-one]	potent activity

Now from value to molecule:

activity in the GR binding assay	Compound
potent activity	CC(C)(CC(O)(Cn1ccc(=O)c2ccccc21)C(F)(F)F)c1cc(F)ccc1OC(F)F (stereo not drawn)
potent activity	COc1ccc(F)cc1C(C)(C)CC(O)(Cn1ccc(=O)c2ccccc21)C1CC1 (stereo not drawn)
potent activity	COc1ccc(-c2cccnc2)cc1C(C)(C)CC(O)(Cn1ccc(=O)c2ccccc21)C(F)(F)F (stereo not drawn)
potent activity	CC(C)(CC(O)(Cn1ccc(=O)c2ccccc21)C(F)(F)F)c1cccc(CN2CCOCC2)c1 (stereo not drawn)
potent activity	CC(C)(CC(O)(Cn1ccc(=O)c2ccccc21)C(F)(F)F)c1cc(F)ccc1OCc1ccccc1 (stereo not drawn)
potent activity	CC(C)(CC(O)(Cn1ccc(=O)c2ncccc21)C(F)(F)F)c1cccc2c1OCC2 (stereo not drawn)
potent activity	Cc1ccc(C(C)(C)CC(O)(Cn2ccc(=O)c3ccccc32)C(F)(F)F)c(C)c1 (stereo not drawn)
potent activity	Cc1ccc(C)c(C(C)(C)CC(O)(Cn2ccc(=O)c3ccccc32)C(F)(F)F)c1 (stereo not drawn)
potent activity	CCOc1cccc(C(C)(C)CC(O)(Cn2ccc(=O)c3ccccc32)C(F)(F)F)c1 (stereo not drawn)
potent activity	CC(C)(CC(O)(Cn1ccc(=O)c2ccccc21)C(F)(F)F)c1ccc(F)c(C2OCCCO2)c1 (stereo not drawn)
potent activity	COc1cc(F)ccc1C(C)(C)CC(O)(Cn1ccc(=O)c2ccccc21)C(F)(F)F (stereo not drawn)
potent activity	CC(C)(CC(O)(Cn1ccc(=O)c2ccccc21)C(F)(F)F)c1cc(F)cc2c1OCC2 (stereo not drawn)
potent activity	CC(C)(CC(O)(Cn1cnc(=O)c2ccccc21)C(F)(F)F)c1cc(F)ccc1O (stereo not drawn)
potent activity	COc1ccc(F)cc1C(C)(C)CC(O)(Cn1cc(C)c(=O)c2ccccc21)C(F)(F)F (stereo not drawn)
potent activity	CCC(C)(CC(O)(Cn1ccc(=O)c2ccccc21)C(F)(F)F)c1ccccc1 (stereo not drawn) [1-(2-Hydroxy-4-methyl-4-phenyl-2-trifluoromethylhexyl)-1H-quinolin-4-one]
potent activity	C/C(=N/OCc1ccccc1)c1cccc(C(C)(C)CC(O)(Cn2ccc(=O)c3ccccc32)C(F)(F)F)c1 (stereo not drawn) [1-(4-{3-[1-(Benzyloxyimino)ethyl]phenyl}-2-hydroxy-4-methyl-2-trifluoromethylpentyl)-1H-quinolin-4-one]
potent activity	Cc1cc(C)c(O)c(C(C)(C)CC(O)(Cn2ccc(=O)c3ccccc32)C(F)(F)F)c1 (stereo not drawn) [1-[2-Hydroxy-4-(2-hydroxy-3,5-dimethylphenyl)-4-methyl-2-trifluoromethylpentyl]-1H-quinolin-4-one]
